We go through five compounds from ChEMBL document CHEMBL4831511, “Fluorovinylsulfones and -Sulfonates as Potent Covalent Reversible Inhibitors of the Trypanosomal Cysteine Protease Rhodesain: Structure-Activity Relationship, Inhibition Mechanism, Metabolism, and In Vivo Studies” (J Med Chem, 2021).

The target in data set [1] is T1, Rhodesain (Trypanosoma brucei rhodesiense, UniProt Q95PM0). Description: Inhibition of Trypanosoma brucei rhodesain assessed as fluorescence using Cbz-Phe-Arg-AMC as substrate measured at second inhibition step by fluorometric enzyme assays.
T1 sequence (Q95PM0 whole entry): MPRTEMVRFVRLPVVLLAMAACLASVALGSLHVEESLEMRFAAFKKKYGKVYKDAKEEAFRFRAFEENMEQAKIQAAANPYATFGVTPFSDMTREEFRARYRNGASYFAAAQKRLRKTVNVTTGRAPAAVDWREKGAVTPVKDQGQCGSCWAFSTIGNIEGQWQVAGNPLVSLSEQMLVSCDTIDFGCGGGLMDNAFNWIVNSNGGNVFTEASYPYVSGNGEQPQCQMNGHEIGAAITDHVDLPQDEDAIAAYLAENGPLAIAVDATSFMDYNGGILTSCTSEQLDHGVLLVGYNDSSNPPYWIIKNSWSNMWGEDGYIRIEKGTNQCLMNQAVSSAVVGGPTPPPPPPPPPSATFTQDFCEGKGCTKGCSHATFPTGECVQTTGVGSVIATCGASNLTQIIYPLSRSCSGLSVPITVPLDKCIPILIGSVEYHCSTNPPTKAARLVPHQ
For data set [2], the target named is T2, Procathepsin L (Homo sapiens, UniProt P07711). Description: Inhibition of human liver CatL assessed as fluorescence using Cbz-Phe-Arg-AMC as substrate measured at second inhibition step by fluorometric enzyme assays.
T2 sequence (P07711 whole entry): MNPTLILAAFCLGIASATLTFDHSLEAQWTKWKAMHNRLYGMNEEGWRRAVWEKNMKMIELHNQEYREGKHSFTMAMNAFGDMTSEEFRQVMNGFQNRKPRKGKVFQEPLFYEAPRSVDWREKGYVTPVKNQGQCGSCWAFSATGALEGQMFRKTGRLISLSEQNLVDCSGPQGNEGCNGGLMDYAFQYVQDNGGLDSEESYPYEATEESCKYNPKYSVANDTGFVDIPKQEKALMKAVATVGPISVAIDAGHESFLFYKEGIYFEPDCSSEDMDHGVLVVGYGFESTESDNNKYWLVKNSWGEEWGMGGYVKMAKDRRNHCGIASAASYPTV
The target of data set [3] is T3, Cathepsin B (Homo sapiens, UniProt P07858). Description: Inhibition of human liver CatB assessed as fluorescence using Cbz-Phe-Arg-AMC as substrate by fluorometric enzyme assays.
For data set [4], the system named is cathepsin L (CatL) versus rhodesain. Description: Selectivity index, ratio of Ki for human liver CatL to Trypanosoma brucei rhodesain. As to conditions: read-out: Selectivity Index.
Data set [5] has as its system J774.1. Description: Cytotoxicity against mouse J774.1 cells by Alamar blue assay. Format: functional.
The species entered for data set [6] is Homo sapiens. Description: Inhibition of alpha-chymotrypsin-like activity of human 20S proteasome at 11 uM using Succ-Leu-Leu-Val-Tyr-AMC as fluorogenic substrate by microplate reader relative to control.
Data set [7] concerns the target Rhodesain (Trypanosoma brucei rhodesiense) (UniProt Q95PM0). Description: Reversible inhibition of Trypanosoma brucei rhodesain assessed as reversibility using Cbz-Phe-Arg-AMC as substrate by dilution assay.
In data set [8] the test system is Trypanosoma brucei brucei. Description: Antiprotozoal activity against Trypanosoma brucei brucei BS449 assessed as luminescence incubated for 24 to 48 hrs by ATPlite assay. Format: functional, organism-based. For orientation: ATP-based viability assays read luminescence as a measure of living cells.
The subject of data set [9] is HeLa. Description: Cytotoxicity against human HeLa cells by Alamar blue assay. Format: functional. In general terms: The colour change of resazurin is a common sign of viable cells or microbes.
The target in data set [10] is Proteasome Macropain subunit (Homo sapiens) (UniProt P49721). Description: Inhibition of trypsin-like activity of human 20S proteasome at 11 uM using boc-Leu-Arg-Arg-AMC as fluorogenic substrate by microplate reader relative to control.
Chain of Proteasome Macropain subunit (Homo sapiens) (P49721 whole entry): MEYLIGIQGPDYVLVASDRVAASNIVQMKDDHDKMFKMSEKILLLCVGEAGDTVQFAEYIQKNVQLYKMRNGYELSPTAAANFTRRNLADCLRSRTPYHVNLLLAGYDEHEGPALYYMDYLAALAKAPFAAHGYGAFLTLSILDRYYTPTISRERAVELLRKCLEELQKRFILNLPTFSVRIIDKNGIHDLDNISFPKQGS
For data set [11], the system named is Dengue virus. Description: Inhibition of Dengue virus NS2B-NS3 protease assessed as fluorescent emission using boc-Gly-Arg-Arg-AMC at 11 uM by microplate reader relative to control.
Data set [12] is filed under the species Homo sapiens. Description: Inhibition of caspase-like activity of human 20S proteasome at 11 uM using Cbz-Leu-Leu-Glu-AMC as fluorogenic substrate by microplate reader relative to control.
Data set [13] deals with Rhodesain (Trypanosoma brucei rhodesiense) (UniProt Q95PM0). Description: Reversible inhibition of Trypanosoma brucei rhodesain assessed as fluorescence using Cbz-Phe-Arg-AMC as substrate by fluorometric enzyme assays.
Chain of Rhodesain (Trypanosoma brucei rhodesiense) (Q95PM0 1-450): as the sequence (Q95PM0 whole entry) above
In data set [14] the target is T1, Rhodesain. Description: Competitive inhibition of Trypanosoma brucei rhodesain assessed as fluorescence using Cbz-Phe-Arg-AMC as substrate by fluorometric enzyme assays.
Data set [15] relates to Trypanosoma brucei brucei. Description: Antiprotozoal activity against Trypanosoma brucei brucei TC211 assessed as luminescence incubated for 24 to 48 hrs by ATPlite assay. Format: functional, organism-based.
In data set [16] the target is Rhodesain (Trypanosoma brucei rhodesiense) (UniProt Q95PM0). Description: Reversible inhibition of Trypanosoma brucei rhodesain assessed as reversibility by measuring residual enzymatic activity using Cbz-Phe-Arg-AMC as substrate after 1 hr by fluorometry based dialysis experiment relative to control.
The target in data set [17] is T3, Cathepsin B. Description: Inhibition of human liver CatB assessed as fluorescence using Cbz-Phe-Arg-AMC as substrate at 11 uM by fluorometric enzyme assays.
Data set [18] concerns the target T1, Rhodesain. Description: Inhibition of Trypanosoma brucei rhodesain assessed as fluorescence using Cbz-Phe-Arg-AMC as substrate measured using Dixon equation by fluorometric enzyme assays.
In data set [19] the target is Rhodesain (Trypanosoma brucei rhodesiense) (UniProt Q95PM0). Description: Binding affinity to Trypanosoma brucei rhodesain assessed as protein-ligand adducts by MALDI-TOF MS analysis.
The target is the same in data set [20]. Description: Inhibition of Trypanosoma brucei rhodesain assessed as rate constant of association using Cbz-Phe-Arg-AMC as substrate by fluorometric enzyme assays.
The target of data set [21] is T2, Procathepsin L. Description: Inhibition of human CatL assessed as fluorescence using Cbz-Phe-Arg-AMC as substrate measured using Dixon equation by fluorometric enzyme assays. Further details: species or system Liver.
Data set [22] has as its target Rhodesain (Trypanosoma brucei rhodesiense) (UniProt Q95PM0). Description: Inhibition of Trypanosoma brucei rhodesain assessed as rate constant of dissociation of the final complex using Cbz-Phe-Arg-AMC as substrate by fluorometric enzyme assays.

Calls of active or inactive are those of the source. The rule behind the calls is not given here. A value given as a limit tells only on which side of the number the result lay.

`CSCC[C@@H](/C=C(\F)S(=O)(=O)c1ccccc1)NC(=O)[C@H](Cc1ccccc1)NC(=O)c1ccncc1`: the values for the Ki in [1], in [2] and in data set [3] were 56 nM, 577 nM and 1000 nM, respectively. In addition, in data set [4], the selectivity ratio is 10.

As for `O=C(N[C@@H](Cc1ccccc1)C(=O)N[C@H](/C=C(\F)S(=O)(=O)c1ccccc1)CCc1ccccc1)c1ccncc1`, the CC50 in data set [5] and in data set [9] was more than 100000 nM throughout. The inhibition came out at 10% in [6] and 41% in data set [12]. Moreover, the result in data set [7] and in data set [13] was Active. Further, the EC50 in data set [8] amounted to 3000 nM. For the same compound, the inhibition result in data set [10] and in data set [11] was “inactive” in each case. Besides, in data set [14], the Ki amounted to 47 nM.

`Cc1ccc(C[C@H](NC(=O)c2ccncc2)C(=O)N[C@H](/C=C(\F)S(=O)(=O)Cc2ccccc2)CCc2ccccc2)cc1`: the Ki was 15 nM in data set [1], 181 nM in data set [2] and 25 nM in [14]. Moreover, the EC50 in [15] amounted to 1400 nM. In [16], the Activity came to 47%. Moreover, the inhibition entry in data set [6], in data set [10], in data set [11] and in data set [12] was “inactive” throughout. Further, the result in [7] and in [13] was Active. Moreover, in [17], the inhibition was determined as 35%. In [9], the CC50 is more than 100000 nM. Further, in data set [4], the selectivity ratio was determined as 12.

Regarding `O=C(N[C@@H](Cc1ccccc1)C(=O)N[C@H](/C=C(\F)S(=O)(=O)Oc1ccccc1)CCc1ccccc1)c1ccncc1`, the Ki in [1] came out at 98 nM; in data set [2], 258 nM; in [18], 15 nM; in data set [3] it was 1700 nM; in [21], 60 nM. Besides, the inhibition in [6] came out at 11%; in data set [12], 22%. Further, in [19], the outcome was Active. For the same compound, the K in data set [20] was 0.055 s⁻¹; in data set [22], 0.01 s⁻¹. The concentration giving a half-maximal response (EC50) in data set [8] came to 4800 nM. Also, in [9], the CC50 is more than 100000 nM. Moreover, the inhibition entry in data set [10] and in [11] was “inactive” throughout. In data set [4], the selectivity ratio amounted to 4.

As to `Cc1ccc(C[C@H](NC(=O)c2ccncc2)C(=O)N[C@H](/C=C(\F)S(=O)(=O)Oc2ccccc2)CCc2ccccc2)cc1`, the inhibitory constant (Ki) is 24 nM in data set [1], 313 nM in data set [2], 3 nM in [18] and 78 nM in [21]. The EC50 in data set [15] was found to be 1900 nM. In data set [16], the Activity turned out to be 89%. Besides, the inhibition in data set [6] is 20%; in data set [17], 38%; in data set [10], 10%; in [12] it was 44%. In addition, the K in data set [20] was 0.075 s⁻¹; in data set [22] it was 0.01 s⁻¹. The same compound had a CC50 in data set [9] of more than 100000 nM. The selectivity ratio in data set [4] came to 26. The inhibition entry in data set [11] is “inactive”.

A word on the Ki: it is the dissociation constant of the complex between target and ligand, obtained from inhibition or displacement. For orientation: CC50 means the concentration that lowers cell viability or growth by half. The term inhibition denotes the change of the read-out against control, counted positive when it falls. The term EC50 denotes the midpoint of the concentration-response curve.
